Measurements taken from the kinase profiling compilation of Christmann-Franck et al. (2016).

What was measured:
Test in all cases: radiometric filter-binding kinase assay, Kinase HotSpot
Settings in all cases: compound 0.5 µM; ATP 10 µM
AURKA (human) = AURKA (human) (UniProt O14965)
AURKC (human) = AURKC (human) (UniProt Q9UQB9)
BRAF (human) = BRAF (human) (UniProt P15056)
CAMK2A (human) = CAMK2A (human) (UniProt Q9UQM7)
CDC42BPA (human) = CDC42BPA (human) (UniProt Q5VT25)
CDK2 CCNE1 (human) = CDK2 CCNE1 (human) (UniProt P24941+P24864)
CDK4 CCND3 (human) = CDK4 CCND3 (human) (UniProt P30281+P11802)
CDK5 CDK5R1 p25 (human) = CDK5 CDK5R1 p25 (human) (UniProt Q00535+Q15078)
CSK (human) = CSK (human) (UniProt P41240)
CSNK1D (human) = CSNK1D (human) (UniProt P48730)
CSNK1G3 (human) = CSNK1G3 (human) (UniProt Q9Y6M4)
DSTYK (human) = DSTYK (human) (UniProt Q6XUX3)
EPHB1 (human) = EPHB1 (human) (UniProt P54762)
EPHB2 (human) = EPHB2 (human) (UniProt P29323)
FLT3 (human) = FLT3 (human) (UniProt P36888)
GSG2 (human) = GSG2 (human) (UniProt Q8TF76)
HIPK4 (human) = HIPK4 (human) (UniProt Q8NE63)
INSR (human) = INSR (human) (UniProt P06213)
ITK (human) = ITK (human) (UniProt Q08881)
JAK3 JH1 JH2 (human) = JAK3 JH1 JH2 (human) (UniProt P52333)
LIMK1 (human) = LIMK1 (human) (UniProt P53667)
LRRK2 (human) = LRRK2 (human) (UniProt Q5S007)
MAP3K3 (human) = MAP3K3 (human) (UniProt Q99759)
MAP3K8 (human) = MAP3K8 (human) (UniProt P41279)
MAP3K9 (human) = MAP3K9 (human) (UniProt P80192)
MAPK8 (human) = MAPK8 (human) (UniProt P45983)
MARK1 (human) = MARK1 (human) (UniProt Q9P0L2)
MARK3 (human) = MARK3 (human) (UniProt P27448)
MATK (human) = MATK (human) (UniProt P42679)
MELK (human) = MELK (human) (UniProt Q14680)
MUSK (human) = MUSK (human) (UniProt O15146)
NUAK1 (human) = NUAK1 (human) (UniProt O60285)
PAK6 (human) = PAK6 (human) (UniProt Q9NQU5)
PAK7 (human) = PAK7 (human) (UniProt Q9P286)
PIM3 (human) = PIM3 (human) (UniProt Q86V86)
PKN1 (human) = PKN1 (human) (UniProt Q16512)
SGK3 (human) = SGK3 (human) (UniProt Q96BR1)
STK10 (human) = STK10 (human) (UniProt O94804)
STK17A (human) = STK17A (human) (UniProt Q9UEE5)
TGFBR1 (human) = TGFBR1 (human) (UniProt P36897)
ULK2 (human) = ULK2 (human) (UniProt Q8IYT8)

Sequence of JAK3 JH1 JH2 (human) (P52333 whole entry, looked up): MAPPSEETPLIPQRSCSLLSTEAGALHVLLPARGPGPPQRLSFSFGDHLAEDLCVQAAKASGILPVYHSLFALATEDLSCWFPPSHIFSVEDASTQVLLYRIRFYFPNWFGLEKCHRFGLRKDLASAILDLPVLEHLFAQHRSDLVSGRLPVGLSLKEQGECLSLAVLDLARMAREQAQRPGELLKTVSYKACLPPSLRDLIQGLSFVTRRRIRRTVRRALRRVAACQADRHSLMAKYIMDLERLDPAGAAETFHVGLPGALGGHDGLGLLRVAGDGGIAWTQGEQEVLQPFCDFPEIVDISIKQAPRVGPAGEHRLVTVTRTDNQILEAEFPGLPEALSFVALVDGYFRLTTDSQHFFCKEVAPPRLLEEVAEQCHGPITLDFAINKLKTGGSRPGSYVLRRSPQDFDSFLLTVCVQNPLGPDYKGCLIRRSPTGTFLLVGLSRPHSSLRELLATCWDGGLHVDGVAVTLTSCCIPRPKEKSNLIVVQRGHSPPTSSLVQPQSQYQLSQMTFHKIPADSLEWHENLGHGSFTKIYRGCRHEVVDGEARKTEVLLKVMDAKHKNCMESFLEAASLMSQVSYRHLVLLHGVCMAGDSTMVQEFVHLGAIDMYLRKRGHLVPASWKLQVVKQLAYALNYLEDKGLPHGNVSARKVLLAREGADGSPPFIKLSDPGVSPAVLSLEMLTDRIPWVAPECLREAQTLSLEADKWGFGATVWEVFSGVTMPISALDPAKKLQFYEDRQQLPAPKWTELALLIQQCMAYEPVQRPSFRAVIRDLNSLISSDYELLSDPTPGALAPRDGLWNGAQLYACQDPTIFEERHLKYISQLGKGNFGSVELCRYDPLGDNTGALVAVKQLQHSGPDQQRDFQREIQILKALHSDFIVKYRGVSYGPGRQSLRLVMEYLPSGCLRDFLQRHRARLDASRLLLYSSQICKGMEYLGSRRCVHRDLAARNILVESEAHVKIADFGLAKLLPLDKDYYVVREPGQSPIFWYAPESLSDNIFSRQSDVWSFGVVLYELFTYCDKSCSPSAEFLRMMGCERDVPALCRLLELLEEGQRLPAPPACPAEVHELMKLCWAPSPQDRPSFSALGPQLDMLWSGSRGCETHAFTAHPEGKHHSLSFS
Sequence of HIPK4 (human) (Q8NE63 whole entry, looked up): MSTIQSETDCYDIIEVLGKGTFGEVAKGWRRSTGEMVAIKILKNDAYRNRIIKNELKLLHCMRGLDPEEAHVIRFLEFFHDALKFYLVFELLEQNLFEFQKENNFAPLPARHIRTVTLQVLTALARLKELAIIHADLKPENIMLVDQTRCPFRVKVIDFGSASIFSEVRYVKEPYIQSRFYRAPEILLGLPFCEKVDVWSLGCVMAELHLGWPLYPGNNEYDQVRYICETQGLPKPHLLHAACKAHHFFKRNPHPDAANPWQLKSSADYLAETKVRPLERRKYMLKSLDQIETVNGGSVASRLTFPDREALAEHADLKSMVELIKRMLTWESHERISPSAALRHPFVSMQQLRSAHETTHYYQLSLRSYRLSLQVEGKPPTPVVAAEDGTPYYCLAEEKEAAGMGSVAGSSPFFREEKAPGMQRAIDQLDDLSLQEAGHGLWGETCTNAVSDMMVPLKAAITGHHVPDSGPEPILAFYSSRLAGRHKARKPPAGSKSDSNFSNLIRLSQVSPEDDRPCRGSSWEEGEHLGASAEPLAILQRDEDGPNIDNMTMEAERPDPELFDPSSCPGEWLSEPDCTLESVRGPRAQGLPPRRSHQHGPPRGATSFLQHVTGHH
Sequence of EPHB2 (human) (P29323 whole entry, looked up): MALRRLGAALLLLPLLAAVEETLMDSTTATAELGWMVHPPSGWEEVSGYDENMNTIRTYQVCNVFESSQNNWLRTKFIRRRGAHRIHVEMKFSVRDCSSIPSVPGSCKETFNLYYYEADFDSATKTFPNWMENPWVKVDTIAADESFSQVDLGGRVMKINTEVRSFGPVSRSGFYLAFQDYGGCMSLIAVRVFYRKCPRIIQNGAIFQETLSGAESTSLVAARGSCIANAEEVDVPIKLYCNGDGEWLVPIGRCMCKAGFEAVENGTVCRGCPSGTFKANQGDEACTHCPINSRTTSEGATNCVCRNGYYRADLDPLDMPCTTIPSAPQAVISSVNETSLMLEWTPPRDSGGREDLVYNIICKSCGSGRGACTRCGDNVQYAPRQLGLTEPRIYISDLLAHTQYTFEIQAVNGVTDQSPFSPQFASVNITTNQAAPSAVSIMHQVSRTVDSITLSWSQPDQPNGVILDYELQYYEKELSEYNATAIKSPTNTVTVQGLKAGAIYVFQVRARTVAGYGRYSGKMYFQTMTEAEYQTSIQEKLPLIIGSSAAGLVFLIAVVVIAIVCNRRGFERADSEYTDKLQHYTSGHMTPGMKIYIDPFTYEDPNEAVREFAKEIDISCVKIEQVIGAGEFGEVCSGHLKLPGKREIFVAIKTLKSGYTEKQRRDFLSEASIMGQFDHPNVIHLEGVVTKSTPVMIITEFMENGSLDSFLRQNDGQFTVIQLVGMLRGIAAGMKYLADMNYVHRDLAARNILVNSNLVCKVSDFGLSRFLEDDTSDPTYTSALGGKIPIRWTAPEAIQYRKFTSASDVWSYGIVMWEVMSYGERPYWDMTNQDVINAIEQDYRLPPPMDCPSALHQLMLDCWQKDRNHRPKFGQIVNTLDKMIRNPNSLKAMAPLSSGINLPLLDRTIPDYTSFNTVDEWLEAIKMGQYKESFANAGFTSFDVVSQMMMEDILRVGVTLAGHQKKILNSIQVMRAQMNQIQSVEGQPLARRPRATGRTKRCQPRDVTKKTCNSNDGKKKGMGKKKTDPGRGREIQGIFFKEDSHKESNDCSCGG
Sequence of MUSK (human) (O15146 whole entry, looked up): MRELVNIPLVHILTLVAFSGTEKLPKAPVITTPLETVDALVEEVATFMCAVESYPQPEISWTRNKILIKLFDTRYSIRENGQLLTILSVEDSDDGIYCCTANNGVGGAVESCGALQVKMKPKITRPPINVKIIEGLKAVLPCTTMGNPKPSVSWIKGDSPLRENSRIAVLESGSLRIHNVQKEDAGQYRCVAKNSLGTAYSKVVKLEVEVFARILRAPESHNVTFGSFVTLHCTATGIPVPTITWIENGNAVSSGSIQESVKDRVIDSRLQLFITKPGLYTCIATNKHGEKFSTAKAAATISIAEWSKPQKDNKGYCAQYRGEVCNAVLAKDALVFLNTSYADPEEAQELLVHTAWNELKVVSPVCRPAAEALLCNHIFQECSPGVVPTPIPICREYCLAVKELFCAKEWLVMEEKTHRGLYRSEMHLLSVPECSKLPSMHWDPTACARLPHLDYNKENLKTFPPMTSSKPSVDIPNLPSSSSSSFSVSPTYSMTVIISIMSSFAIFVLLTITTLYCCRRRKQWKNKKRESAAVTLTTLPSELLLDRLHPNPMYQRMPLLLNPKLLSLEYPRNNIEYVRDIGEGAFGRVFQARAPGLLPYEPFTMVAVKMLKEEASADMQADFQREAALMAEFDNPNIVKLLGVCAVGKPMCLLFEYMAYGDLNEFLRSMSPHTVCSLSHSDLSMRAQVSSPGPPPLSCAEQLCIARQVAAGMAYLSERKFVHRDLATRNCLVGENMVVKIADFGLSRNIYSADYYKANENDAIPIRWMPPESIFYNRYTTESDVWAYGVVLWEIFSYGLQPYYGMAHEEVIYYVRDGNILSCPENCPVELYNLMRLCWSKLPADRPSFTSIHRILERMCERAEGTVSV
Sequence of MARK3 (human) (P27448 whole entry, looked up): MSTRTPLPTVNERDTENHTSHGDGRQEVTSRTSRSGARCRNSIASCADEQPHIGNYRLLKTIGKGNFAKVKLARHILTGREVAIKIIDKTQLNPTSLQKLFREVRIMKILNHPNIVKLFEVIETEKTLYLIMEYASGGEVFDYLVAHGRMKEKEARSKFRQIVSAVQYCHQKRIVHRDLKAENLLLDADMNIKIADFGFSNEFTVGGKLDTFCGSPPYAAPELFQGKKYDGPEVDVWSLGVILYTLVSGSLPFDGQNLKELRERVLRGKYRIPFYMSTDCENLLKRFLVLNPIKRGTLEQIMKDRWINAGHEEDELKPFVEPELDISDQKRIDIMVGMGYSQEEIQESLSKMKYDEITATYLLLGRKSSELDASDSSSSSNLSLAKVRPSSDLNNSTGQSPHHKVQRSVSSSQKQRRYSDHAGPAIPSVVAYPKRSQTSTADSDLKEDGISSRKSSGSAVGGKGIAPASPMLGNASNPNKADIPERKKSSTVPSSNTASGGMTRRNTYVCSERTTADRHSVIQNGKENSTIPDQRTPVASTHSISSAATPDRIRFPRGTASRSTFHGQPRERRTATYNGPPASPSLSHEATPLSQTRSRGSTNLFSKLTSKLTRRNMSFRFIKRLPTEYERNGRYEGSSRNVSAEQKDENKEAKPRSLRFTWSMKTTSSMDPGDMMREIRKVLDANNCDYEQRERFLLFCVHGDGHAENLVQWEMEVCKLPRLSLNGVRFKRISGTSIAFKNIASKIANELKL
Sequence of CSK (human) (P41240 whole entry, looked up): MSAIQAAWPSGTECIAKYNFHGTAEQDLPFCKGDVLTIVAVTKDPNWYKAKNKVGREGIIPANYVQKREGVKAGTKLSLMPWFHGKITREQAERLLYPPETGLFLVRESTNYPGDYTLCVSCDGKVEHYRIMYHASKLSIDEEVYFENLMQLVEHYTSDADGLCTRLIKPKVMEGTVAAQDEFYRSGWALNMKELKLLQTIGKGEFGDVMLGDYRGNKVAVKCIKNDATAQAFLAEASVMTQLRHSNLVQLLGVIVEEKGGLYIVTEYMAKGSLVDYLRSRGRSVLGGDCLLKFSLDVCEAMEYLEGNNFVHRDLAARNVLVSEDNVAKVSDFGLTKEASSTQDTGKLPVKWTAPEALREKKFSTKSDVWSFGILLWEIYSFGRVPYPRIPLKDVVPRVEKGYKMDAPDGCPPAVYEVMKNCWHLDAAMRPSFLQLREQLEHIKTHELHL

N#CC(C#N)=C(N)/C(C#N)=C/c1ccc(O)cc1
residual activity (AURKA (human)): 89.6%
residual activity (AURKC (human)): 101%
residual activity (BRAF (human)): 90.1%
residual activity (CAMK2A (human)): 103%
residual activity (CDC42BPA (human)): 96.2%
residual activity (CDK2 CCNE1 (human)): 97%
residual activity (CDK4 CCND3 (human)): 97.1%
residual activity (CDK5 CDK5R1 p25 (human)): 97.6%
residual activity (CSK (human)): 97.6%
residual activity (CSNK1D (human)): 98.7%
residual activity (CSNK1G3 (human)): 100%
residual activity (DSTYK (human)): 92.9%
residual activity (EPHB1 (human)): 88.3%
residual activity (EPHB2 (human)): 97.1%
residual activity (FLT3 (human)): 92.2%
residual activity (GSG2 (human)): 90.1%
residual activity (HIPK4 (human)): 99.7%
residual activity (INSR (human)): 94.2%
residual activity (ITK (human)): 98.7%
residual activity (JAK3 JH1 JH2 (human)): 102%
residual activity (LIMK1 (human)): 89.9%
residual activity (LRRK2 (human)): 97.1%
residual activity (MAP3K3 (human)): 78.6%
residual activity (MAP3K8 (human)): 96%
residual activity (MAP3K9 (human)): 94.4%
residual activity (MAPK8 (human)): 100%
residual activity (MARK1 (human)): 111%
residual activity (MARK3 (human)): 96.5%
residual activity (MATK (human)): 92.5%
residual activity (MELK (human)): 101%
residual activity (MUSK (human)): 103%
residual activity (NUAK1 (human)): 92.3%
residual activity (PAK6 (human)): 97%
residual activity (PAK7 (human)): 94.5%
residual activity (PIM3 (human)): 91.3%
residual activity (PKN1 (human)): 89%
residual activity (SGK3 (human)): 103%
residual activity (STK10 (human)): 92.4%
residual activity (STK17A (human)): 72.8%
residual activity (TGFBR1 (human)): 93%
residual activity (ULK2 (human)): 105%
